Several values for one entry are separate records, joined by “and”; a condition that tells them apart may be missing. Identical values can stand only once.
Conditions: for mass density: 101.33 kPa, Liquid, Vibrating tube method; for surface tension liquid-gas: Pendant drop shape

COCCOCCOC [2,5,8-trioxanonane]
Conditions | mass density | surface tension liquid-gas [mN/m]
303.15 K | 933.98 kg/m3 | –
303.16 K | 933.65 kg/m3 | 28.54
308.15 K | 928.95 kg/m3 | –
313.15 K | 923.97 kg/m3 | –
313.16 K | 923.61 kg/m3 | 27.57
318.15 K | 918.94 kg/m3 | –
323.15 K | 913.9 kg/m3 | –
323.17 K | 913.51 kg/m3 | 26.27
328.15 K | 908.84 kg/m3 | –
333.15 K | 903.76 kg/m3 and 903.38 kg/m3 | 24.98
338.15 K | 898.67 kg/m3 | –
343.15 K | 893.55 kg/m3 and 893.13 kg/m3 | 23.79
348.15 K | 888.41 kg/m3 | –
353.15 K | 883.24 kg/m3 | –
353.16 K | 882.79 kg/m3 | 22.87
358.15 K | 878.04 kg/m3 | –
363.14 K | 872.36 kg/m3 | 21.68
363.15 K | 872.81 kg/m3 | –
373.14 K | 861.79 kg/m3 | 20.53
383.16 K | 851.06 kg/m3 | 19.43
393.15 K | 840.22 kg/m3 | 18.37

CCCCC(CC)COC(C)=O (centres undefined) [2-ethylhexyl acetate]
Conditions | mass density | surface tension liquid-gas [mN/m]
303.15 K | 863.51 kg/m3 | –
303.17 K | 863.56 kg/m3 | 25.15
308.15 K | 859.15 kg/m3 | –
313.15 K | 854.77 kg/m3 | –
313.16 K | 854.84 kg/m3 | 24.23
318.15 K | 850.39 kg/m3 | –
323.15 K | 846.01 kg/m3 | –
323.16 K | 846.08 kg/m3 | 23.23
328.15 K | 841.61 kg/m3 | –
333.15 K | 837.2 kg/m3 and 837.29 kg/m3 | 22.28
338.15 K | 832.78 kg/m3 | –
343.15 K | 828.35 kg/m3 and 828.44 kg/m3 | 21.27
348.15 K | 823.91 kg/m3 | –
353.15 K | 819.45 kg/m3 | –
353.16 K | 819.54 kg/m3 | 20.22
358.15 K | 814.98 kg/m3 | –
363.15 K | 810.49 kg/m3 and 810.59 kg/m3 | 19.26
373.15 K | 801.56 kg/m3 | 18.35
383.15 K | 792.46 kg/m3 | 17.44
393.16 K | 783.27 kg/m3 | 16.59

COCCO [2-methoxyethan-1-ol]
Conditions | mass density [kg/m3] | surface tension liquid-gas [mN/m]
303.15 K | 956.73 | –
303.16 K | 956.41 | 30.06
308.15 K | 952.09 | –
313.14 K | 947.1 | 29.01
313.15 K | 947.42 | –
318.15 K | 942.72 | –
323.15 K | 937.98 | –
323.16 K | 937.62 | 27.98
328.15 K | 933.21 | –
333.14 K | 928.03 | 26.9
333.15 K | 928.39 | –
338.15 K | 923.54 | –
343.15 K | 918.64 | –
343.16 K | 918.23 | 25.88
348.15 K | 913.69 | –
353.15 K | 908.7 | –
353.16 K | 908.26 | 24.7
358.15 K | 903.65 | –
363.15 K | 898.55 | –
363.16 K | 898.09 | 23.6
373.16 K | 887.7 | 22.56
383.17 K | 877.05 | 21.58
393.17 K | 866.15 | 20.51

CCOC(=O)CCC(=O)OCC [diethyl butanedioate]
Conditions | mass density | surface tension liquid-gas [mN/m]
303.15 K | 1029.59 kg/m3 | –
303.16 K | 1029.57 kg/m3 | 30.62
308.15 K | 1024.4 kg/m3 | –
313.15 K | 1019.2 kg/m3 and 1019.2 kg/m3 | 29.55
318.15 K | 1014.01 kg/m3 | –
323.15 K | 1008.81 kg/m3 and 1008.81 kg/m3 | 28.42
328.15 K | 1003.6 kg/m3 | –
333.15 K | 998.39 kg/m3 | –
333.17 K | 998.37 kg/m3 | 27.41
338.15 K | 993.16 kg/m3 | –
343.15 K | 987.93 kg/m3 | –
343.17 K | 987.91 kg/m3 | 26.33
348.15 K | 982.7 kg/m3 | –
353.15 K | 977.45 kg/m3 | –
353.16 K | 977.44 kg/m3 | 25.12
358.15 K | 972.19 kg/m3 | –
363.15 K | 966.91 kg/m3 | –
363.16 K | 966.9 kg/m3 | 24.02
373.14 K | 956.34 kg/m3 | 22.95
383.15 K | 945.69 kg/m3 | 21.96
393.17 K | 934.96 kg/m3 | 21.03

Cc1ccccc1 [toluene]
Conditions | surface tension liquid-gas [mN/m]
303.16 K | 27.15
308.15 K | 26.51
313.15 K | 25.98
318.13 K | 25.42
323.15 K | 24.89
328.16 K | 24.34
333.14 K | 23.65
338.16 K | 23.08
343.16 K | 22.55
348.16 K | 21.98
353.15 K | 21.45
358.15 K | 20.92
363.16 K | 20.37
368.14 K | 19.86
